Data on two molecules can be found in US11377473B2, “Albumin-binding prodrugs of auristatin E derivatives” (priority 2017, dated 2022).

The structures appear in SMILES notation.

Data set [1] has as its system malignant melanoma cancer model A375. Nature of the data set: Human malignant melanoma cancer model A375, small tumors. The class given is in vivo, NMRI nude mice. As to the method:
Feed and water were provided ad libitum. […] Identification used: ear mark and cage labels. […] Tumor volumes were calculated according to the following equation: […]
The evaluation of auristatin E and the albumin-binding auristatin E derivative AE-Keto-Sulf07 in a human malignant melanoma cancer model A375 was carried out as described in the general procedure for cell-line-derived xenograft models.
Stock solutions were prepared as follows: • 1) 7 mice, 29 g average weight, 135 mm^3 average median tumor volume on day of randomization: 0.3 mg/kg auristatin E TFA salt (AE equiv.) dosed twice weekly for 3 weeks on day 0, 6, 9, 13, 16, 19≡0.35 mg/kg≡7.1 μg/20 g mouse.

Data set [2] concerns panel of 6 selected human cancer cell lines (LXFL 1674L, SW-620, CAL-27, RKO, MDA-MB-468, SK-OV-3). Nature of the data set: IC50 determination in a panel of tumor cell lines (CellTiter-Blue Cell Viability assay). The class given is cell-based. The conditions noted are these: geometric mean over six cell lines, 96 h treatment; read-out: Geometric mean IC50. As to the method: Samples were provided to Charles River Discovery Research Services Germany GmbH as frozen stock solutions in pharmaceutical grade DMSO (Sigma-Aldrich, Taufkirchen, Germany). On each day of the experiment, a frozen aliquot of stock solution was thawed. Subsequent serial dilutions were realized with complete RPMI 1640 cell culture medium using an intermediate dilution plate. 10 μL taken from the intermediate dilution plate were then transferred to 140 μL/well of the cell culture plate. Cells were treated with the test compounds at 10 concentrations in triplicate in half-log steps from 0.003 nM to 100 nM for a period of 96 h.
The compounds were tested in a panel of 6 selected human cancer cell lines by using CellTiter-Blue® Cell Viability assay (Promega, Mannheim, Germany). IC values are reported as absolute IC50 values, obtained for a test compound as the geometric mean of IC50 values over all cell lines tested.
The cell lines used were LXFL 1674L (established from patient-derived xenograft at Charles River Discovery Research Services Germany GmbH), SW-620 (kindly provided by the NCI, Bethesda, Md., USA), CAL-27 (purchased from DSMZ, Deutsche Sammlung von Mikroorganismen und Zellkulturen, Braunschweig, Germany), RKO, MDA-MB-468, and SK-OV-3 (from ATCC, American Type Culture Collection, Rockville, Md., USA). Authenticity of all cell lines was proven at the DSMZ by STR (short tandem repeat) analysis, a PCR based DNA-fingerprinting methodology. Cell lines were routinely passaged once or twice weekly and maintained in culture for up to 20 passages. Cells were grown at 37° C. in a humidified atmosphere with 5% CO2 in RPMI 1640 medium (25 mM HEPES, with L-glutamine, Biochrom, Berlin, Germany) supplemented with 10% (v/v) fetal calf serum (Sigma-Aldrich, Taufkirchen, Germany) and 0.1 mg/mL gentamicin (Life Technologies, Karlsruhe, Germany). The CellTiter-Blue® Cell Viability Assay was used according to manufacturer's instructions. Briefly, cells were harvested from exponential phase cultures, counted and plated in 96-well flat-bottom microtiter plates at a cell density of 4,000-10,000 cells/well depending on the cell line's growth rate. After a 24 h recovery period to allow the cells to resume exponential growth, 10 μL of culture medium (six control wells/plate) or of culture medium with test compound were added. The compounds were applied at 10 concentrations in triplicate in half-log increments up to 100 nM and cells were treated continuously for 96 h. […] Following an incubation period of up to 4 h, fluorescence (FU) was measured by using the Enspire Multimode Plate Reader (excitation λ=531 nm, emission λ=615 nm). IC50 values were determined with GraphPad Prism bioanalytic software (San Diego, Calif., USA).

Setting [3] is: 3.0 mg/kg six times twice weekly.

Turning to `CC[C@H](C)[C@@H]([C@@H](CC(=O)N1CCC[C@H]1[C@H](OC)[C@@H](C)C(=O)N[C@H](C)C(=NNC(=O)c1ccc(NC(=O)CCCCCN2C(=O)C=CC2=O)cc1S(=O)(=O)O)c1ccccc1)OC)N(C)C(=O)[C@@H](NC(=O)[C@H](C(C)C)N(C)C)C(C)C` [AE-Keto-Sulf07, 2-(2-((R)-2-((2R,3R)-3-((S)-1-((3R,4S,5S)-4-((S)-2-((S)-2-(dimethylamino)-3-methylbutanamido)-N,3-dimethylbutanamido)-3-methoxy-5-methylheptanoyl)pyrrolidin-2-yl)-3-methoxy-2-methylpropanamido)-1-phenylpropylidene)hydrazine-1-carbonyl)-5-(6-(2,5-dioxo-2,5-dihydro-1H-pyrrol-1-yl)hexanamido)benzenesulfonic acid], in data set [1] (setting [3]), the body weight result is listed as “only a slight reduction in body weight growth compared to the control” and the side effects result was “no detectable side effects”. The tumor response entry in data set [1] (3.0 mg/kg six times twice weekly, day 19 until end of study on day 37) was “complete remission (complete remission <10%)”. Further, the “p, antitumor efficacy versus auristatin E” value in data set [1] (3.0 mg/kg versus auristatin E 0.3 mg/kg, six injections twice weekly, day 27 to day 37) was less than 0.01. This molecule had a final tumor volume in data set [1] (3.0 mg/kg, day 37) of 1 mm^3.

Consider `CC[C@H](C)[C@@H]([C@@H](CC(=O)N1CCC[C@H]1[C@H](OC)[C@@H](C)C(=O)N[C@H](C)[C@@H](O)c1ccccc1)OC)N(C)C(=O)[C@@H](NC(=O)[C@H](C(C)C)N(C)C)C(C)C` [auristatin E], for which the half-maximal inhibitory concentration (IC50) (commonly the concentration needed to halve the response being measured) in data set [2] amounted to 0.13 nM. For the same molecule, in data set [1] (0.3 mg/kg six times twice weekly, until day 21), the tumor response entry was “stable disease (stable disease >75-125%)”.
